Common to all, as to test: Post-emergence efficacy, glasshouse, evaluated after 13 days
Assay type in all cases: in vivo

Assay [1] has as its system Amaranthus palmeri (AMAPA). To be noted: Amaranthus palmeri, 312 h, read-out: Control of weed species AMAPA (100=total damage to plant; 0=no damage to plant). Summed up: (§1)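 Plants grown 14 days in glasshouse (24/16° C., 14 h light, 65% humidity), then sprayed post-emergence with compound formulated in IF50 and diluted in 0.25% or 1% Empicol ESC70 + 1% ammonium sulphate. Damage scored after 13 days (0 none to 100 total).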

Assay [2] has as its system Chenopodium album (CHEAL). As to conditions: Chenopodium album, 312 h, read-out: Control of weed species CHEAL (100=total damage to plant; 0=no damage to plant). The method in brief:
as §1

The subject of assay [3] is Digitaria sanguinalis (DIGSA). To be noted: Digitaria sanguinalis, 312 h, read-out: Control of weed species DIGSA (100=total damage to plant; 0=no damage to plant). Summed up:
as §1

Assay [4] relates to Echinochloa crus-galli (ECHCG). As to conditions: Echinochloa crus-galli, 312 h, read-out: Control of weed species ECHCG (100=total damage to plant; 0=no damage to plant). Summed up: as §1
In a further assay the test system is Eleusine indica (ELEIN). To be noted: Eleusine indica, 312 h, read-out: Control of weed species ELEIN (100=total damage to plant; 0=no damage to plant). Summed up: as §1
Assay [5] relates to Euphorbia heterophylla (EPHHL). As to conditions: Euphorbia heterophylla, 312 h, read-out: Control of weed species EPHHL (100=total damage to plant; 0=no damage to plant). Summed up:
as §1

The test system of assay [6] is Ipomoea hederacea (IPOHE). To be noted: Ipomoea hederacea, 312 h, read-out: Control of weed species IPOHE (100=total damage to plant; 0=no damage to plant). The method in brief: as §1
In another assay the test system is Lolium perenne (LOLPE). As to conditions: Lolium perenne, 312 h, read-out: Control of weed species LOLPE (100=total damage to plant; 0=no damage to plant). The method in brief:
as §1

In a further assay the test system is Setaria faberi (SETFA). As to conditions: Setaria faberi, 312 h, read-out: Control of weed species SETFA (100=total damage to plant; 0=no damage to plant). The method in brief:
as §1

[7] abbreviates: post-emergence application, 500 g/Ha, evaluated after 13 days.

Where a name gives a salt, the structure may show the parent alone. Read-outs that look alike come from different tables or passages of the source.

Regarding `O=C(O)CC[n+]1ccc(C(=O)NCc2ccc(F)cc2)cn1` [Compound A22], the pest or weed control at 500 g/ha in assay [1] (setting [7]) came to 100%; in [2] (setting [7]), 90%; in assay [3] (setting [7]), 60%; in assay [4] (setting [7]), 50%; in the assay on Eleusine indica (ELEIN) (setting [7]), 60%; in [5] (setting [7]), 90%. The pest or weed control at 500 g/ha in assay [6] (setting [7]) was 40%; in the assay on Lolium perenne (LOLPE) (setting [7]), 40%; in the assay on Setaria faberi (SETFA) (setting [7]), 50%.

`O=C(NCc1ccc(F)cc1)c1cc[n+](CCS(=O)(=O)[O-])nc1` [Compound A23]: the pest or weed control at 500 g/ha was determined as 100% in [1] (setting [7]); 70% in assay [2] (setting [7]); 60% in assay [3] (setting [7]); 70% in assay [4] (setting [7]); 60% with Eleusine indica (ELEIN) (setting [7]); 60% in assay [5] (setting [7]). Moreover, the pest or weed control at 500 g/ha was found to be 50% in assay [6] (setting [7]), 20% in the assay with Lolium perenne (LOLPE) (setting [7]) and 70% in the assay on Setaria faberi (SETFA) (setting [7]).

Regarding `O=C(O)CC[n+]1ccc(C(=O)N2CCCCC2)cn1` [Compound A24, 3-[4-(piperidine-1-carbonyl)pyridazin-1-ium-1-yl]propanoic acid trifluoroacetate], the pest or weed control at 500 g/ha is 100% in assay [1] (post-emergence); 90% in assay [2] (post-emergence); 70% in [3] (post-emergence); 60% in assay [4] (post-emergence); 60% in the assay with Eleusine indica (ELEIN) (post-emergence); 90% in assay [5] (post-emergence). The pest or weed control at 500 g/ha in assay [6] (post-emergence) was 30%; in the assay on Lolium perenne (LOLPE) (post-emergence), 30%; in the assay on Setaria faberi (SETFA) (post-emergence) it was 60%.

On to `O=C(NCC1CC1)c1cc[n+](CCS(=O)(=O)[O-])nc1` [Compound A25], for which the pest or weed control at 500 g/ha in assay [1] (setting [7]) was determined as 100%; in assay [2] (setting [7]), 90%; in assay [3] (setting [7]), 80%; in assay [4] (setting [7]), 70%; in the assay on Eleusine indica (ELEIN) (setting [7]), 90%; in [5] (setting [7]) it was 80%. For the same compound, the pest or weed control at 500 g/ha was found to be 60% in assay [6] (setting [7]), 60% in the assay with Lolium perenne (LOLPE) (setting [7]) and 80% in the assay on Setaria faberi (SETFA) (setting [7]).

Turning to `O=C(O)CC[n+]1ccc(C(=O)N2CCCC2)cn1` [Compound A26], the pest or weed control at 500 g/ha in [1] (setting [7]) was 100%; in assay [2] (setting [7]), 100%; in assay [3] (setting [7]), 100%; in assay [4] (setting [7]) it was 90%; in the assay with Eleusine indica (ELEIN) (setting [7]), 80%; in assay [5] (setting [7]) it was 90%. Further, the figures for the pest or weed control at 500 g/ha (in [6] (setting [7]); in the assay with Lolium perenne (LOLPE) (setting [7]); in the assay on Setaria faberi (SETFA) (setting [7])) were 40%, 90% and 100%, respectively.

Take `O=C(c1cc[n+](CCS(=O)(=O)[O-])nc1)N1CCCCC1` [Compound A27]: the pest or weed control at 500 g/ha stood at 70% in assay [1] (setting [7]); 40% in assay [2] (setting [7]); 40% in assay [3] (setting [7]); 40% in [4] (setting [7]); 10% in the assay with Eleusine indica (ELEIN) (setting [7]); 70% in [5] (setting [7]). Besides, the pest or weed control at 500 g/ha in [6] (setting [7]) stood at 30%; in the assay on Lolium perenne (LOLPE) (setting [7]), 30%; in the assay on Setaria faberi (SETFA) (setting [7]), 40%.

For `O=C(c1cc[n+](CCS(=O)(=O)[O-])nc1)N1CCOCC1` [Compound A28], the pest or weed control at 500 g/ha in assay [1] (setting [7]) was determined as 100%; in assay [2] (setting [7]) it was 90%; in assay [3] (setting [7]), 70%; in [4] (setting [7]), 50%; in the assay on Eleusine indica (ELEIN) (setting [7]), 70%; in assay [5] (setting [7]), 80%. Moreover, the pest or weed control at 500 g/ha came out at 60% in assay [6] (setting [7]), 60% in the assay on Lolium perenne (LOLPE) (setting [7]) and 70% in the assay on Setaria faberi (SETFA) (setting [7]).

As to `O=C(O)CC[n+]1ccc(C(=O)N2CCOCC2)cn1` [Compound A29], the pest or weed control at 500 g/ha in [1] (setting [7]) turned out to be 100%; in assay [2] (setting [7]), 90%; in [3] (setting [7]), 90%; in assay [4] (setting [7]), 90%; with Eleusine indica (ELEIN) (setting [7]) it was 90%; in assay [5] (setting [7]), 100%. For the same compound, the pest or weed control at 500 g/ha in [6] (setting [7]) is 50%; in the assay with Lolium perenne (LOLPE) (setting [7]), 50%; in the assay with Setaria faberi (SETFA) (setting [7]), 90%.

As to `O=C(NC1CC1)c1cc[n+](CCS(=O)(=O)[O-])nc1` [Compound A30], the pest or weed control at 500 g/ha was 100% in [1] (setting [7]); 100% in assay [2] (setting [7]); 70% in [3] (setting [7]); 40% in assay [4] (setting [7]); 80% in the assay with Eleusine indica (ELEIN) (setting [7]); 70% in assay [5] (setting [7]). The pest or weed control at 500 g/ha (in assay [6] (setting [7]); with Lolium perenne (LOLPE) (setting [7]); in the assay on Setaria faberi (SETFA) (setting [7])) was 70% each time.

Take `O=C(O)CC[n+]1ccc(C(=O)NC2CC2)cn1` [Compound A31]: the pest or weed control at 500 g/ha in assay [1] (setting [7]) worked out at 100%; in assay [2] (setting [7]), 100%; in assay [3] (setting [7]) it was 100%; in assay [4] (setting [7]) it was 70%; in the assay on Eleusine indica (ELEIN) (setting [7]), 100%; in assay [5] (setting [7]), 100%. The pest or weed control at 500 g/ha in [6] (setting [7]) stood at 30%; in the assay with Lolium perenne (LOLPE) (setting [7]), 70%; with Setaria faberi (SETFA) (setting [7]), 100%.

For the compound `CC(C)N(C(=O)c1cc[n+](CCC(=O)O)nc1)C(C)C` [Compound A32], the pest or weed control at 500 g/ha in assay [1] (setting [7]) turned out to be 50%; in [2] (setting [7]), 20%; in [3] (setting [7]), 20%; in assay [4] (setting [7]) it was 30%; in the assay with Eleusine indica (ELEIN) (setting [7]), 10%; in assay [5] (setting [7]), 40%. Besides, the pest or weed control at 500 g/ha in assay [6] (setting [7]) is 10%; with Lolium perenne (LOLPE) (setting [7]), 10%; with Setaria faberi (SETFA) (setting [7]) it was 30%.

Take `O=C(O)CC[n+]1ccc(C(=O)Nc2ccccc2)cn1` [Compound A33]: the pest or weed control at 500 g/ha in assay [1] (setting [7]) came out at 100%; in [2] (setting [7]) it was 80%; in assay [3] (setting [7]), 60%; in assay [4] (setting [7]) it was 60%; in the assay on Eleusine indica (ELEIN) (setting [7]), 90%; in assay [5] (setting [7]) it was 50%. The pest or weed control at 500 g/ha in assay [6] (setting [7]) was 30%; in the assay on Lolium perenne (LOLPE) (setting [7]) it was 70%; in the assay with Setaria faberi (SETFA) (setting [7]) it was 60%.

For `CC(C)N(C)C(=O)c1cc[n+](CCC(=O)O)nc1` [Compound A34], the pest or weed control at 500 g/ha in assay [1] (setting [7]) was 100%; in [2] (setting [7]), 40%; in [3] (setting [7]), 70%; in [4] (setting [7]), 30%; in the assay with Eleusine indica (ELEIN) (setting [7]), 20%; in assay [5] (setting [7]), 70%. For the same compound, the pest or weed control at 500 g/ha in assay [6] (setting [7]) worked out at 20%; in the assay with Lolium perenne (LOLPE) (setting [7]), 30%; in the assay with Setaria faberi (SETFA) (setting [7]), 70%.

The record behind these values is patent US20210403435A1, “HERBICIDAL COMPOUNDS” (SYNGENTA CROP PROTECTION AG, priority 2018, published 2021).
